The values that follow come from ChEMBL document CHEMBL4184194, “An appraisal on synthetic and pharmaceutical perspectives of pyrazolo[4,3-d]pyrimidine scaffold” (Bioorg Med Chem, 2018).

Values after ≈ are worked out from the molar mass of the structure shown.

In assay [1] the test system is Nicotiana tabacum. Nature of the assay: Anticytokinin activity against Nicotiana tabacum. The format is functional, organism-based.
Assay [2] concerns Nicotiana tabacum. Nature of the assay: Toxicity in Nicotiana tabacum. The format is organism-based.
The test system of assay [3] is Nicotiana tabacum. Nature of the assay: Growth inhibition of cytokinin-autonomous tobacco cells. The format is functional. The conditions noted are these: for TGI: read-out: GI100.
The subject of assay [4] is Nicotiana tabacum. Nature of the assay: Growth inhibition of cytokinin-requiring tobacco cells. The format is functional. The conditions noted are these: for TGI: read-out: GI100.
The test system of assay [5] is Human alphaherpesvirus 1. Nature of the assay: Antiviral activity against HSV1 MP infected in African green monkey Vero cells assessed as inhibition of plaque formation after 48 hrs. Type of assay: functional. Particulars: Human alphaherpesvirus 1, MP, read-out: ED50 (the source's name).
The target of assay [6] is Cyclin-dependent kinase 4/cyclin D1 (Homo sapiens, UniProt P11802). Nature of the assay: Inhibition of recombinant human N-terminal GST-tagged CDK4 (S4 to E303 residues)/CyclinD1 (Q4 to I295 residues) expressed in Sf9 insect cells.
In assay [7] the target is CDK7/Cyclin H/MNAT1 (Homo sapiens, UniProt P50613). Nature of the assay: Inhibition of recombinant human full length N-terminal GST/His6-tagged CDK7 (M1 to F346 residues)/N-terminal His6-tagged CyclinH (M1 to L323 residues)/N-terminal His6-tagged MAT1 (M1 to S306 residues) expressed in Sf9 insect cells.
Assay [8] relates to Candida albicans. Nature of the assay: Antimicrobial activity against Candida albicans ATCC 10231 by two-fold serial dilution assay. Type of assay: functional.
For assay [9], the system named is Candida albicans. Nature of the assay: Fungicidal activity against Candida albicans ATCC 10231 by two-fold serial dilution assay. Type of assay: functional.
For assay [10], the target named is Cyclin-dependent kinase 1/cyclin B1 (Homo sapiens, UniProt P06493). The assay can be described thus: Inhibition of CDK1/CyclinB (unknown origin). Type of assay: protein-complex assay.
For assay [11], the system named is K562. Nature of the assay: Antiproliferative activity against human K562 cells. The format is functional, cell-based.
The test system of assay [12] is Semliki Forest virus. Nature of the assay: Antiviral activity against Semliki forest virus infected in Swiss Webster mouse assessed as mouse survival at 100 mg/kg, ip measured after 18 to 24 hrs. The format is functional.
Assay [13] concerns Semliki Forest virus. Nature of the assay: Antiviral activity against Semliki forest virus infected in Swiss Webster mouse assessed as mean survival time at 100 mg/kg, ip. The format is functional.
For assay [14], the target named is CDK6/cyclin D1 (Homo sapiens, UniProt Q00534). The assay can be described thus: Inhibition of recombinant human full length N-terminal GST-tagged CDK6 (M1 to A326 residues)/CyclinD1 (Q4 to I295 residues) expressed in Sf9 insect cells.
For assay [15], the target named is CDK9/cyclin T1 (Homo sapiens, UniProt P50750). The assay can be described thus: Inhibition of recombinant human full length N-terminal GST/His6-tagged CDK9 (M1 to F372 residues)/N-terminal His6-tagged CyclinT1 (M1 to K726 residues) expressed in Sf9 insect cells.
The test system of assay [16] is Staphylococcus aureus. The assay can be described thus: Bactericidal activity against Staphylococcus aureus ATCC 6538 by two-fold serial dilution assay. Type of assay: functional.
Assay [17] deals with Escherichia coli. The assay can be described thus: Bactericidal activity against Escherichia coli NCTC 10418 by two-fold serial dilution assay. The format is functional.
Assay [18] deals with Pseudomonas aeruginosa. Nature of the assay: Antimicrobial activity against Pseudomonas aeruginosa ATCC 9027 by two-fold serial dilution assay. Type of assay: functional.
Assay [19] has as its system Pseudomonas aeruginosa. Nature of the assay: Bactericidal activity against Pseudomonas aeruginosa ATCC 9027 by two-fold serial dilution assay. The format is functional.
The target of assay [20] is Cyclin-dependent kinase 2/cyclin E1 (Homo sapiens, UniProt P24941). The assay can be described thus: Inhibition of recombinant human full length N-terminal GST-tagged CDK2 (M1 to L298 residues)/CyclinE1 (M1 to A395 residues) expressed in baculovirus infected Sf9 insect cells using histone H1 as substrate by [gamma33P]ATP-based assay.
Assay [21] has as its system MCF7. The assay can be described thus: Growth inhibition of human MCF7 cells after 72 hrs by Calcein AM dye based fluorescence assay. The format is functional. The conditions noted are these: MCF7, 72 h.
The test system of assay [22] is K562. The assay can be described thus: Growth inhibition of human K562 cells after 72 hrs by Calcein AM dye based fluorescence assay. Particulars: K562, 72 h. The format is functional.
The test system of assay [23] is Semliki Forest virus. The assay can be described thus: Antiviral activity against Semliki forest virus infected in Swiss Webster mouse assessed as mouse survival at 200 mg/kg, ip measured after 18 to 24 hrs. The format is functional.
The test system of assay [24] is Semliki Forest virus. The assay can be described thus: Antiviral activity against Semliki forest virus infected in Swiss Webster mouse assessed as mouse survival at 50 mg/kg, ip measured after 18 to 24 hrs. Type of assay: functional.
For assay [25], the system named is Semliki Forest virus. The assay can be described thus: Antiviral activity against Semliki forest virus infected in Swiss Webster mouse assessed as mouse survival at 30 mg/kg, ip measured after 18 to 24 hrs. Type of assay: functional.
For assay [26], the system named is Semliki Forest virus. Nature of the assay: Antiviral activity against Semliki forest virus infected in Swiss Webster mouse assessed as mouse survival at 10 mg/kg, ip measured after 18 to 24 hrs. Type of assay: functional.
Assay [27] concerns Semliki Forest virus. Nature of the assay: Antiviral activity against Semliki forest virus infected in Swiss Webster mouse assessed as mean survival time at 200 mg/kg, ip. Type of assay: functional.
The test system of assay [28] is Semliki Forest virus. Nature of the assay: Antiviral activity against Semliki forest virus infected in Swiss Webster mouse assessed as mean survival time at 50 mg/kg, ip. Type of assay: functional.
The subject of assay [29] is Semliki Forest virus. The assay can be described thus: Antiviral activity against Semliki forest virus infected in Swiss Webster mouse assessed as mean survival time at 30 mg/kg, ip. The format is functional.
Assay [30] has as its system Semliki Forest virus. Nature of the assay: Antiviral activity against Semliki forest virus infected in Swiss Webster mouse assessed as mean survival time at 10 mg/kg, ip. The format is functional.

Chain of CDK7/Cyclin H/MNAT1 (P51946 whole entry, the tested form may be a part): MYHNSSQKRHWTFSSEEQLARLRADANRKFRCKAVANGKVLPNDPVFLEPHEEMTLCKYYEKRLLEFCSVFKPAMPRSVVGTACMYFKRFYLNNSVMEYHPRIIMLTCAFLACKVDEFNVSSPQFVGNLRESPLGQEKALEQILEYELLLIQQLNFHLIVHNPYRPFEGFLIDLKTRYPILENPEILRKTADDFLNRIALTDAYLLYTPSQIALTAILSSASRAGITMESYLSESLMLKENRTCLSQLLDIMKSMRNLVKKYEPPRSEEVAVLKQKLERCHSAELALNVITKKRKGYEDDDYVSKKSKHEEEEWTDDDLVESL
Chain of CDK7/Cyclin H/MNAT1 (P50613 whole entry, the tested form may be a part): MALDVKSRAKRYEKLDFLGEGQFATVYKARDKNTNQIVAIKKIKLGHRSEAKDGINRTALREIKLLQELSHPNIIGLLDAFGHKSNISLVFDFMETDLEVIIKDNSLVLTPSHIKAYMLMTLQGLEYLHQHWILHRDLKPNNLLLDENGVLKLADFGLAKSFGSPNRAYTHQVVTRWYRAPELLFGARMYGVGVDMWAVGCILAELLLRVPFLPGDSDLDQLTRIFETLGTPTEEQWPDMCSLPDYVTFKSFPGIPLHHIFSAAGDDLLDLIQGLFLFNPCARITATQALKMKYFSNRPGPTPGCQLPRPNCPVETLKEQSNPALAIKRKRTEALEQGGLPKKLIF
Chain of CDK7/Cyclin H/MNAT1 (P51948 whole entry, further chain, the tested form may be a part): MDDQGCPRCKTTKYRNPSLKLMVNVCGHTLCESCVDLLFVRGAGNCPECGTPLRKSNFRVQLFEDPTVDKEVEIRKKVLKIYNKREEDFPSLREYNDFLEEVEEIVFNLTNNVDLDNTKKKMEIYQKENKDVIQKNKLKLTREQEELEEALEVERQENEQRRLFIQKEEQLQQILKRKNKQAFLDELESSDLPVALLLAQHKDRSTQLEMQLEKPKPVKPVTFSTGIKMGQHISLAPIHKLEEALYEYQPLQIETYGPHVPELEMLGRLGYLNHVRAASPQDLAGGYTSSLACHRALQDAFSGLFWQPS
Chain of CDK9/cyclin T1 (O60563 whole entry, the tested form may be a part): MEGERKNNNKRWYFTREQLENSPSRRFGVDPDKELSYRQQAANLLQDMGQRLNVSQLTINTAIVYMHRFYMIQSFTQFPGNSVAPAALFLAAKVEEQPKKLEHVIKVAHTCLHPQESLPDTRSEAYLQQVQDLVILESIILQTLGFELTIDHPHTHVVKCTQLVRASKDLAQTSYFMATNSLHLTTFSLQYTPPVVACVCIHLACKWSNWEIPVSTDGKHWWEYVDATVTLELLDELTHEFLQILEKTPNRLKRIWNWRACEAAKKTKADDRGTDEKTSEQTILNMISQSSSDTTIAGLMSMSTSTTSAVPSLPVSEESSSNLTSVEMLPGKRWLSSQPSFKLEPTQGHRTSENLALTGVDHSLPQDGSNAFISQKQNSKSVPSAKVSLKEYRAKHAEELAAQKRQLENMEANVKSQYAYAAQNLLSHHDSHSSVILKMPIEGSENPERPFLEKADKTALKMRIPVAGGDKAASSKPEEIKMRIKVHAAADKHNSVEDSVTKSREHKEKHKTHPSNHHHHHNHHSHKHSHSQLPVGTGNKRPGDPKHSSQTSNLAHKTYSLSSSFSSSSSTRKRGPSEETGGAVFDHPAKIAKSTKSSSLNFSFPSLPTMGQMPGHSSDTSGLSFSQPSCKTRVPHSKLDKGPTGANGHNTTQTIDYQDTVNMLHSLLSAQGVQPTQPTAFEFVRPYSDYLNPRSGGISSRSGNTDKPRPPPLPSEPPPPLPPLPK
Chain of CDK9/cyclin T1 (P50750 whole entry, the tested form may be a part): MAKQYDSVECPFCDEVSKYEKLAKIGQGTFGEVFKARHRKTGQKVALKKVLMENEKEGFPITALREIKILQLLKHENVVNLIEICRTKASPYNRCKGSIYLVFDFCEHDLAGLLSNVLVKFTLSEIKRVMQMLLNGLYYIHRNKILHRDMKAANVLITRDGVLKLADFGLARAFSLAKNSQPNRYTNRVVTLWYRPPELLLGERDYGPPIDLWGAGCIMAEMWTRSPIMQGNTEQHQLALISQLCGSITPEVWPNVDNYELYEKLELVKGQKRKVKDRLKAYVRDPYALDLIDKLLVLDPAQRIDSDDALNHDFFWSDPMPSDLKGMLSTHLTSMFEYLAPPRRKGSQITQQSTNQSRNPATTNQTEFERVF
Chain of Cyclin-dependent kinase 4/cyclin D1 (P11802 whole entry, the tested form may be a part): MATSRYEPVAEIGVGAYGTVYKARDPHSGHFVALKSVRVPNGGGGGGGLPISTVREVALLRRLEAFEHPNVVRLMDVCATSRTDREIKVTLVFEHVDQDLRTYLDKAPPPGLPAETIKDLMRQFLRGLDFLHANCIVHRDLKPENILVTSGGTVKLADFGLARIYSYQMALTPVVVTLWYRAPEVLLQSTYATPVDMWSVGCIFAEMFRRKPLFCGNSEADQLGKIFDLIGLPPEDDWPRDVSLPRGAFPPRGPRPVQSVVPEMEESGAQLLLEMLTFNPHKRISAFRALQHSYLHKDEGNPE
Chain of Cyclin-dependent kinase 4/cyclin D1 (P24385 whole entry, further chain, the tested form may be a part): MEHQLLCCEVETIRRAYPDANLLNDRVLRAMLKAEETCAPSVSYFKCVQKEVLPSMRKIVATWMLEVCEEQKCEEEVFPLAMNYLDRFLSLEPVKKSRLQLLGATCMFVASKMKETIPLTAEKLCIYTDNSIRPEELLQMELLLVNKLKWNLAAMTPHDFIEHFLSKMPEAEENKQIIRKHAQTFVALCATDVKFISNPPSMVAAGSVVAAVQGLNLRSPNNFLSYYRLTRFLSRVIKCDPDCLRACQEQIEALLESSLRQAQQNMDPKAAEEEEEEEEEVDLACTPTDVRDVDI
Chain of Cyclin-dependent kinase 1/cyclin B1 (P06493 whole entry): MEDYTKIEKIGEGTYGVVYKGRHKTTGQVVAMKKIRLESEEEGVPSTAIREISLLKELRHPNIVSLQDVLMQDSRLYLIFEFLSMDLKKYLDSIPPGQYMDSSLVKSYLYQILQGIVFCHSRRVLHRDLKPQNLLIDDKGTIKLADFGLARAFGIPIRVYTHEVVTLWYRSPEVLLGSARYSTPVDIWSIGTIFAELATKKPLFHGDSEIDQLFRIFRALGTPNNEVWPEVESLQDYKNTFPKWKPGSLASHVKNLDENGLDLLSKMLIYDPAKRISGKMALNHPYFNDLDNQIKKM
Chain of Cyclin-dependent kinase 1/cyclin B1 (P14635 whole entry, further chain): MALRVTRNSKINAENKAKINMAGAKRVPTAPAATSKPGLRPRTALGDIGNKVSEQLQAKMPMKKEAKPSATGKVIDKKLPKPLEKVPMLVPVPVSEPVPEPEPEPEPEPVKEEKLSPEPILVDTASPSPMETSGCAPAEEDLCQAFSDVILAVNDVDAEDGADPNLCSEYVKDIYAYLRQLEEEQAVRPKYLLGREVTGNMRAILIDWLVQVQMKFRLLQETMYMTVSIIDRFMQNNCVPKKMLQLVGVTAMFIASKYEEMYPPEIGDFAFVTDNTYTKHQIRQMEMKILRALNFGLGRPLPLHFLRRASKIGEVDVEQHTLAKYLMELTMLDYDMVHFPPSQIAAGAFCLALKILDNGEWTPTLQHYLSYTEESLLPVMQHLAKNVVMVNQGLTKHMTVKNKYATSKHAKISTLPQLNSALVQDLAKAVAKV
Chain of CDK6/cyclin D1 (P24385 whole entry, the tested form may be a part): as the sequence (P24385 whole entry, further chain, the tested form may be a part) above
Chain of CDK6/cyclin D1 (Q00534 whole entry, the tested form may be a part): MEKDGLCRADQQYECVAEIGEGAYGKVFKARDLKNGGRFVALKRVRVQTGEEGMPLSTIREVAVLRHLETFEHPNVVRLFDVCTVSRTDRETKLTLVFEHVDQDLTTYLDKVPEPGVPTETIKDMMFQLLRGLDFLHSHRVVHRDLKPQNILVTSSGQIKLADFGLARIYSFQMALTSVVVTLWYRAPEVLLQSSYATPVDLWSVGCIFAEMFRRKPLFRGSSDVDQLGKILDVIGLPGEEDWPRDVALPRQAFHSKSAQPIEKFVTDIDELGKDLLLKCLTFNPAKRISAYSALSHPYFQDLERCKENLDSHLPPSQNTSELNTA

As usually defined, the IC50 is the concentration that gives 50% inhibition. In general, GI50 refers to the concentration giving 50% growth inhibition. On to `CCCCCNc1ncnc2c(C)n[nH]c12`, for which the half-maximal inhibitory concentration (IC50) in assay [1] came out at 30 nM; in assay [2], 200 nM. The GI50 was found to be 25 nM in [3] and 20 nM in [4]. For the same molecule, the TGI in assay [3] and in assay [4] was 50 nM in each case.
For the molecule `CCCCn1cnc2c(C)nn([C@@H]3O[C@H](CO)[C@@H](O)[C@H]3O)c2c1=O`, in assay [5], the EC50 was 152000 nM.
`Cc1n[nH]c2c(NCc3ccccc3)ncnc12`: in assay [3], the GI50 worked out at 30 nM and the TGI stood at 100 nM. Besides, in [4], the GI50 worked out at 40 nM and the TGI was found to be 150 nM.
On to `CC(C)c1n[nH]c2c(NCc3ccccc3)nc(NC3CCC(N)CC3)nc12` (stereo not given), for which the IC50 was 6600 nM in assay [6] and > 100000 nM in assay [7].
In general, MIC refers to the smallest concentration in the dilution series that meets the test's criterion for growth inhibition. What is called MFC is the smallest concentration meeting the test's criterion for killing the fungus. In assay [8], `O=c1[nH]cnc2c(-c3ccc(Br)cc3)n[nH]c12` came in with an MIC of 250 µg/mL (≈ 859 µM). In addition, in assay [9], the MFC came out at 250 µg/mL (≈ 859 µM).
Consider `CCCCCCNc1ncnc2c(C)n[nH]c12`, for which the figures for the IC50 in [1] and in assay [2] were 30 nM and 500 nM, respectively.
As to `COc1ccc(Cn2cnc3c(C)nn([C@@H]4O[C@H](CO)[C@@H](O)[C@H]4O)c3c2=O)cc1`, the EC50 in [5] was determined as 49500 nM.
On to `O=c1[nH]c(=O)n([C@H]2C[C@H](O)[C@@H](CO)O2)cc1I` [IDOXURIDINE], for which the EC50 in assay [5] was determined as 1200 nM.
Still for that read-out and setting: the result for `Cc1nn([C@@H]2O[C@H](CO)[C@@H](O)[C@H]2O)c2c(=O)n(-c3ccc(Cl)cc3)cnc12` reads 50000 nM.
Consider `CC(C)c1n[nH]c2c(NCc3ccccc3O)ncnc12`, for which the IC50 was found to be 440 nM in assay [10] and 54000 nM in [11].
Take `Nc1nc(=O)c2sc(=O)n([C@@H]3O[C@H](CO)[C@@H](O)[C@H]3O)c2[nH]1` [ISATORIBINE]: the survival at 100 mg/kg in assay [12] came out at 92%. In addition, the MST in assay [13] stood at 8 days.
As to `CC(C)c1n[nH]c2c(NCc3ccccc3)nc(NC3CCCCC3N)nc12` (stereo not given), the IC50 in assay [14] is > 100000 nM; in assay [7] it was > 100000 nM; in assay [15] it was > 1000 nM.
In general, MBC refers to the lowest tested concentration that kills the bacteria rather than only halting them. For `CC1(C)S[C@@H]2[C@H](NC(=O)[C@H](N)c3ccccc3)C(=O)N2[C@H]1C(=O)O` [AMPICILLIN], the MBC in [16] came to 15.6 µg/mL (≈ 44.7 µM); in assay [17] it was 31.2 µg/mL (≈ 89.4 µM); in assay [19], 500 µg/mL (≈ 1430 µM). Inhibition of growth in [18] (MIC) required 250 µg/mL (≈ 715 µM).
Take `CC(C)c1n[nH]c2c(NCc3ccccc3N)nc(NC[C@@H](C)O)nc12`: in assay [20], the IC50 was 16.5 nM. For the same molecule, the figures for the GI50 in [21] and in assay [22] were 4400 nM and 15500 nM, respectively.
For the molecule `Cn1nc([C@@H]2O[C@H](CO)[C@@H](O)[C@H]2O)c2nc(N)[nH]c(=O)c21`, in assay [23], the survival at 200 mg/kg came to 58%. The survival at 100 mg/kg in assay [12] was 67%. In addition, the survival at 50 mg/kg in assay [24] was found to be 67%. Further, the survival at 30 mg/kg in [25] worked out at 50%. Also, the survival at 10 mg/kg in assay [26] is 8%. For the same molecule, the MST in assay [27] turned out to be 7 days; in assay [13], 8 days; in [28] it was 6 days; in assay [29] it was 9.2 days; in [30], 9.6 days.
For the molecule `CC[C@@H](CO)Nc1nc(NCc2ccccc2N)c2[nH]nc(C(C)C)c2n1`, the IC50 in [20] turned out to be 15.3 nM. The figures for the GI50 in assay [21] and in assay [22] were 10900 nM and 22300 nM, respectively.
On the same counts, the results for `CC[C@H](CO)Nc1nc(NCc2ccccc2N)c2[nH]nc(C(C)C)c2n1` are 10.5 nM, 2800 nM and 9200 nM.
Take `Cn1cnc2c(NCc3ccccc3)nc(NCCO)nc21` [OLOMOUCINE]: in assay [11], the IC50 turned out to be 163000 nM.
As for `Cc1n[nH]c2c(NCCC(C)C)ncnc12`, the values for the IC50 in assay [1] and in assay [2] were 100 nM and 730 nM, respectively.
As to `Clc1ccccc1C(c1ccccc1)(c1ccccc1)n1ccnc1` [CLOTRIMAZOLE], it took 7.81 µg/mL (≈ 22.6 µM) to inhibit growth in [8] (MIC). Further, in [9], the MFC stood at 15.6 µg/mL (≈ 45.3 µM).
